Earlier results as cited in PubChem BioAssay AID1259409 (Chemical Carcinogenesis Research Information System (CCRIS), 2018).

Test system: rodent chemically induced tumor inhibition, incidence and multiplicity
Assay: CCRIS tumor inhibitor studies
Settings: Dose [Inhibitor]: 0

Compound: C[C@]12CCCCC1=CC[C@@H]1[C@@H]2CC[C@]2(C)C(=O)[C@H](F)C[C@@H]12
- tumour outcome (control, treated, inhibition, significance) (Carcinogen: 7,12-DIMETHYLBENZ[A]ANTHRACENE, 57-97-6, 200 UG IN 0.2 ML ACETONE 3/WK 1 HR BEFORE PROMOTER ON 2 D AND ALONE ON 1 D BEGINNING 18 D POST CARCINOGEN AND CONTINU, Route [Inhibitor]: DERMAL, Species: MOUSE, Strain/Sex: CD-1/FEMALE, Target Tissue: Type of Lesion: SKIN: PAPILLOMA, Dose [Carcinogen]: 200 NMOL IN 0.2 ML ACETONE ONCE AND MICE KEPT IN DARKENED ROOM FOR 48 HR POST INITIATION, Promoter: 12-O-TETRADECANOYLPHORBOL-13-ACETATE, 16561-29-8): 92%, 70%, 24%, not calculated
- tumour outcome (control, treated, inhibition, significance) (Carcinogen: AZOXYMETHANE, 25843-45-2, 200 PPM IN DIET BEGINNING PRIOR TO CARCINOGEN DOSE AND CONTINUING FOR DURATION OF STUDY (STUDY DURATION: 54 WK), Route [Inhibitor]: ORAL, Species: RAT, Strain/Sex: F344/MALE, Target Tissue: Type of Lesion: COLON: ADENOCARCINOMA, Dose [Carcinogen]: 15 MG/KG 1/WK FOR 2 WK, Promoter: NONE USED): 72%, 50%, 31%, p<0.05
- tumour outcome (control, treated, inhibition, significance) (Carcinogen: AZOXYMETHANE, 25843-45-2, 200 PPM IN DIET BEGINNING PRIOR TO CARCINOGEN DOSE AND CONTINUING FOR DURATION OF STUDY (STUDY DURATION: 54 WK), Route [Inhibitor]: ORAL, Species: RAT, Strain/Sex: F344/MALE, Target Tissue: Type of Lesion: COLON: ADENOMA, Dose [Carcinogen]: 15 MG/KG 1/WK FOR 2 WK, Promoter: NONE USED): 14%, 8%, 43%, not calculated
- tumour outcome (control, treated, inhibition, significance) (Carcinogen: AZOXYMETHANE, 25843-45-2, 200 PPM IN DIET BEGINNING PRIOR TO CARCINOGEN DOSE AND CONTINUING FOR DURATION OF STUDY (STUDY DURATION: 54 WK), Route [Inhibitor]: ORAL, Species: RAT, Strain/Sex: F344/MALE, Target Tissue: Type of Lesion: SMALL INTESTINE: ADENOCARCINOMA, Dose [Carcinogen]: 15 MG/KG 1/WK FOR 2 WK, Promoter: NONE USED): 50%, 28%, 44%, not calculated
- tumour outcome (control, treated, inhibition, significance) (Carcinogen: AZOXYMETHANE, 25843-45-2, 200 PPM IN DIET BEGINNING PRIOR TO CARCINOGEN DOSE AND CONTINUING FOR STUDY DURATION (STUDY DURATION: 54 WK), Route [Inhibitor]: ORAL, Species: RAT, Strain/Sex: F344/MALE, Target Tissue: Type of Lesion: SMALL INTESTINE: ADENOMA, Dose [Carcinogen]: 15 MG/KG 1/WK FOR 2 WK, Promoter: NONE USED): 3%, 0%, 100%, not calculated
- tumour outcome (control, treated, inhibition, significance) (Carcinogen: AZOXYMETHANE, 25843-45-2, 400 PPM IN DIET BEGINNING PRIOR TO CARCINOGEN DOSE AND CONTINUING FOR DURATION OF STUDY (STUDY DURATION: 54 WK), Route [Inhibitor]: ORAL, Species: RAT, Strain/Sex: F344/MALE, Target Tissue: Type of Lesion: COLON: ADENOCARCINOMA, Dose [Carcinogen]: 15 MG/KG 1/WK FOR 2 WK, Promoter: NONE USED): 72%, 61%, 15%, not calculated
- tumour outcome (control, treated, inhibition, significance) (Carcinogen: AZOXYMETHANE, 25843-45-2, 400 PPM IN DIET BEGINNING PRIOR TO CARCINOGEN DOSE AND CONTINUING FOR DURATION OF STUDY (STUDY DURATION: 54 WK), Route [Inhibitor]: ORAL, Species: RAT, Strain/Sex: F344/MALE, Target Tissue: Type of Lesion: COLON: ADENOMA, Dose [Carcinogen]: 15 MG/KG 1/WK FOR 2 WK, Promoter: NONE USED): 14%, 6%, 57%, not calculated
- tumour outcome (control, treated, inhibition, significance) (Carcinogen: AZOXYMETHANE, 25843-45-2, 400 PPM IN DIET BEGINNING PRIOR TO CARCINOGEN DOSE AND CONTINUING FOR DURATION OF STUDY (STUDY DURATION: 54 WK), Route [Inhibitor]: ORAL, Species: RAT, Strain/Sex: F344/MALE, Target Tissue: Type of Lesion: SMALL INTESTINE: ADENOCARCINOMA, Dose [Carcinogen]: 15 MG/KG 1/WK FOR 2 WK, Promoter: NONE USED): 50%, 17%, 66%, p<0.01
- tumour outcome (control, treated, inhibition, significance) (Carcinogen: AZOXYMETHANE, 25843-45-2, 400 PPM IN DIET BEGINNING PRIOR TO CARCINOGEN DOSE AND CONTINUING FOR DURATION OF STUDY (STUDY DURATION: 54 WK), Route [Inhibitor]: ORAL, Species: RAT, Strain/Sex: F344/MALE, Target Tissue: Type of Lesion: SMALL INTESTINE: ADENOMA, Dose [Carcinogen]: 15 MG/KG 1/WK FOR 2 WK, Promoter: NONE USED): 3%, 0%, 100%, not calculated
- tumour outcome (control, treated, inhibition, significance) (Carcinogen: N-METHYL-N-NITROSOUREA, 684-93-5, 0.1% IN DIET FOR DURATION OF STUDY BEGINNING 1 WK PRIOR TO CARCINOGEN DOSE (STUDY DURATION: 187 D), Route [Inhibitor]: ORAL, Species: RAT, Strain/Sex: SPRAGUE-DAWLEY/FEMALE, Target Tissue: Type of Lesion: MAMMARY GLAND: CARCINOMA, Dose [Carcinogen]: 50 MG/KG ONCE AT 50 D OF AGE, Promoter: NONE USED): 100%, 100%, 0%, not significant
- tumour outcome (control, treated, inhibition, significance) (Carcinogen: N-METHYL-N-NITROSOUREA, 684-93-5, 0.2% IN DIET FOR 2 WK BEGINNING 1 WK PRIOR TO CARCINOGEN DOSE (STUDY DURATION: 187 D), Route [Inhibitor]: ORAL, Species: RAT, Strain/Sex: SPRAGUE-DAWLEY/FEMALE, Target Tissue: Type of Lesion: MAMMARY GLAND: CARCINOMA, Dose [Carcinogen]: 50 MG/KG ONCE AT 50 D OF AGE, Promoter: NONE USED): 100%, 100%, 0%, not significant
- tumour outcome (control, treated, inhibition, significance) (Carcinogen: N-METHYL-N-NITROSOUREA, 684-93-5, 0.2% IN DIET FOR DURATION OF STUDY BEGINNING 1 WK POST CARCINOGEN DOSE (STUDY DURATION: 180 D), Route [Inhibitor]: ORAL, Species: RAT, Strain/Sex: SPRAGUE-DAWLEY/FEMALE, Target Tissue: Type of Lesion: MAMMARY GLAND: CARCINOMA, Dose [Carcinogen]: 50 MG/KG ONCE AT 50 D OF AGE, Promoter: NONE USED): 100%, 95%, 5%, not significant
- tumour outcome (control, treated, inhibition, significance) (Carcinogen: N-METHYL-N-NITROSOUREA, 684-93-5, 0.2% IN DIET FOR DURATION OF STUDY BEGINNING 1 WK PRIOR TO CARCINOGEN DOSE (STUDY DURATION: 187 D), Route [Inhibitor]: ORAL, Species: RAT, Strain/Sex: SPRAGUE-DAWLEY/FEMALE, Target Tissue: Type of Lesion: MAMMARY GLAND: CARCINOMA, Dose [Carcinogen]: 50 MG/KG ONCE AT 50 D OF AGE, Promoter: NONE USED): 100%, 100%, 0%, not significant

Compound: Cc1cc(NC(=O)[C@H](CCCN=C(N)N)NC(=O)[C@H](CO)NC(=O)[C@H](Cc2ccccc2)NC(=O)OC(C)(C)C)cc2oc(=O)ccc12
- tumour outcome (control, treated, inhibition, significance) (Carcinogen: 1,2-DIMETHYLHYDRAZINE, 540-73-8, 2429 UG/G IN DIET FOR 32 WK BEGINNING AT 24 D OF AGE (STUDY DURATION: 32 WK), Route [Inhibitor]: ORAL, Species: RAT, Strain/Sex: SPRAGUE-DAWLEY/MALE, Target Tissue: Type of Lesion: COLON: ADENOCARCINOMA, Dose [Carcinogen]: 20 MG/KG 1/WK FOR 15 WK BEGINNING ON D 37, Promoter: NONE USED): 19/22 (86%), 11/16 (69%), 20%, not calculated
- tumour outcome (control, treated, inhibition, significance) (Carcinogen: 1,2-DIMETHYLHYDRAZINE, 540-73-8, 2429 UG/G IN DIET FOR 32 WK BEGINNING AT 24 D OF AGE (STUDY DURATION: 32 WK), Route [Inhibitor]: ORAL, Species: RAT, Strain/Sex: SPRAGUE-DAWLEY/MALE, Target Tissue: Type of Lesion: SMALL INTESTINE: ADENOCARCINOMA, Dose [Carcinogen]: 20 MG/KG 1/WK FOR 15 WK BEGINNING ON D 37, Promoter: NONE USED): 18/22 (82%), 10/16 (63%), 23%, not calculated

Compound: C=CC[C@@H]1/C=C(\C)C[C@H](C)C[C@H](OC)[C@H]2O[C@@](O)(C(=O)C(=O)N3CCCC[C@H]3C(=O)O[C@H](/C(C)=C/[C@@H]3CC[C@@H](O)[C@H](OC)C3)[C@H](C)[C@@H](O)CC1=O)[C@H](C)C[C@@H]2OC
- tumour outcome (control, treated, inhibition, significance) (Carcinogen: 7,12-DIMETHYLBENZ[A]ANTHRACENE : 57-97-6, 1 UMOL APPLIED 5 MIN PRIOR TO EACH PROMOTER DOSE FOR 22 WK BEGINNING 10 D POST CARCINOGEN DOSE (STUDY DURATION: 23 WK, Route [Inhibitor]: DERMAL, Species: MOUSE, Strain/Sex: CD-1/FEMALE, Target Tissue: Type of Lesion: SKIN: PAPILLOMA, Dose [Carcinogen]: 200 NMOL ONCE, Promoter: 12-O-TETRADECANOYLPHORBOL-13-ACETATE, 16561-29-8): 100%, 15%, 85%, not calculated
- tumour outcome (control, treated, inhibition, significance) (Carcinogen: 7,12-DIMETHYLBENZ[A]ANTHRACENE, 57-97-6, 0.1 UMOL APPLIED 15 MIN PRIOR TO EACH PROMOTER DOSE FOR 22 WK BEGINNING 10 D POST CARCINOGEN DOSE (STUDY DURATION: 23, Route [Inhibitor]: DERMAL, Species: (20,20)/(20,20), Strain/Sex: CD-1/FEMALE, Target Tissue: Type of Lesion: SKIN: PAPILLOMA, Dose [Carcinogen]: 200 NMOL ONCE, Promoter: 12-O-TETRADECANOYLPHORBOL-13-ACETATE, 16561-29-8): 100%, 38%, 62%, not calculated
